Measurements published in ChEMBL document CHEMBL3272236, “Synthesis and evaluation of 1,omega-diaryl-l,omega-alkanediamines related to the fibrinolytic bis(tetrahydroisoquinolines) and bis(benzylamines)” (1976).

Tested on: Rattus norvegicus
Test: Fibrinolytic activity in ip dosed rat assessed as blood clot lysis for 4 hrs
Type: functional
Conditions: not given

Compound	ED50
COc1ccc(C(N)CCCCCCCC2NCCc3cc(OC)c(OC)cc32)cc1OC.Cl (racemic; 31b)	0.5 mg/kg

Same assay, conditions: Rattus norvegicus, Blood clot, ip, 4 h; read-out: ED50

Compound	ED50
COc1ccc(CC(N)CCCCC(N)Cc2ccc(OC)c(OC)c2)cc1OC.Cl (centres undefined)	15 mg/kg
COc1ccc(C(N)CCCCCCC2NCCc3cc(OC)c(OC)cc32)cc1OC.Cl (centres undefined)	1 mg/kg
COc1cc2c(cc1OC)C(CCCCC1NCCCc3cc(OC)c(OC)cc31)NCCC2.Cl (centres undefined)	0.7 mg/kg
COc1ccc2[nH]c3c(c2c1)CCNC3CCCCC1NCCc2c1[nH]c1ccc(OC)cc21.Cl (centres undefined)	6 mg/kg
COc1ccc2c(c1)CCNC2CCCCC1NCCc2cc(OC)ccc21.Cl (centres undefined)	2 mg/kg
COc1ccc(C(N)CCCCC2NCCc3cc(OC)c(OC)cc32)cc1OC.Cl (centres undefined)	0.9 mg/kg
COc1ccc2[nH]c3c(c2c1)CCNC3CCCCCCCC1NCCc2c1[nH]c1ccc(OC)cc21.Cl (centres undefined)	2 mg/kg
COc1cc2c(cc1OC)C(CCCCC1NCCc3cc(OC)c(OC)cc31)NCC2.Cl (centres undefined)	0.3 mg/kg
COc1cc(CCCCCCc2cc(OC)c(OC)cc2C(C)N)c(C(C)N)cc1OC.Cl (centres undefined)	4 mg/kg
COc1ccc(C(N)CCCCCCCC2NCCc3cc(OC)c(OC)cc32)cc1OC.Cl (racemic; 31a)	0.7 mg/kg
COc1ccc(C(N)CCCCC(N)c2ccc(OC)c(OC)c2)cc1OC.Cl (centres undefined)	0.4 mg/kg
COc1ccc2c(c1)CCNC2CCCCCCCC1NCCc2cc(OC)ccc21.Cl (centres undefined)	6 mg/kg
NCCc1c[nH]c2ccc(O)cc12 [SEROTONIN]	1 mg/kg
